The source of these data is patent publication US20180206489A1, “REPELLENT EFFECTIVE AGAINST ANOPHELES GAMBIAE” (Simon Fraser University, priority 2014, published 2018).

In experiment [1] the test system is Anopheles gambiae. Nature of the experiment: Electroantennogram (EAG) screening assay on female antennae. How it is done: EAG recordings were obtained using a Combi Probe (Syntech, Kirchzarten, Germany) fitted with glass capillary Ag/AgCl electrodes, filled with insect Ringer solution. Fine, tapered capillaries were prepared on a Gravipull-2 capillary puller (Kation Scientific, Minneapolis, USA). Data were recorded with an IDAC-4 data acquisition system (Syntech), interfaced with a computer that had the software EAGpro (version 1.1, Syntech). Stimuli were dissolved in hexane […] and applied to small filter papers (Whatman No. 1) (10 μL). This gave doses on the filter paper of 1 μg, 10 μg and 100 μg. After evaporation of the solvent, the filter papers were placed in a Pasteur pipette. Pipettes were attached to a CS-55 stimulus controller ([…]) that delivered a pulse of air (30 mL/s) through the pipette and into a metal stimulus delivery tube (Ø 0.95 cm×18 cm) that dispensed a continuous airflow (25 mL/s) and was positioned approximately 2 cm from the mosquito antenna so that the airflow contacted the entire antenna. The duration of the pulse was 0.7 s. Screening took place on A. gambiae females 4-7 days post-eclosion. Females were starved (sugar water replaced with distilled water in the colony cage) for 24 hours before trials to ensure a standard hunger level in test subjects. Mosquitoes were prepared for trials in this manner: the head of the mosquito was excised and the base of the head was connected to the ground electrode. The tip of the distal segment of one antenna was cut and inserted it into the recording electrode. Only mosquitoes producing a steady baseline reading were used for trials. All readings were taken within 10 minutes of the time the mosquito was prepared and each female was tested only once with one full chemical series. Trials included human scent emanating from a sock (Tradition brand, nylon) previously conditioned through 30 minutes of vigorous exercise by a volunteer and incubated at 28° C. and 80% RH for 24 hours. […] For trials, the sock was cut into 0.5 cm×3 cm strips and put into the pipette dispensing the odor pulses. Odors in each run were presented to the mosquito in the following order with at least 25 seconds between odor pulses: no odor, no odor, 10 μg DEETTM, 10 μg chemical, no odor, no odor, human scent only, human scent with 1 μg chemical, human scent with 10 μg chemical, human scent with 100 μg chemical, human scent only, no odor, no odor, 10 μg DEETTM. Several of these pulses served as internal controls to ensure that the mosquito antenna was still responding to the stimuli, or the human odor was detectable to the mosquito. One of the pulses, such as air pulse, produced a response, but it is smaller than that of odor or of presented compounds, seven […]. The DEETTM pulses were included as a reference. The pulses of interest were those containing both the human odor and chemical of interest in various concentrations. 9 runs were completed for each chemical tested and recorded the amplitude of the peaks produced for each odor pulse. […] All data were analyzed in R version 2.15.0 (R Development Core Team, 2012). […] EAG activity values were analyzed using a generalized least squares ANOVA with a variance structure that accounts for measurements within runs being more similar than measurements between runs. […] Behavioural assay data was analyzed using a MANOVA with solvent type and chemical (including concentration) as factors. […]

Experiment [2] deals with Anopheles gambiae. Nature of the experiment: Behavioural olfactometer assay with human odor source protected by chemical and alternate plant (honey) odor source. In kind it is in vivo. The following applies: for repelling efficacy, DEET vs 3c{3,6}: 0.1% solution; for total experiment time (time in the proximity of the human odor source) vs unprotected control / probe time (time on the human odor source) vs unprotected control / number of probe attempts at the human odor source vs unprotected control: 1% chemical on mesh over human odor, P<0.05; for total experiment time (time in the proximity of the human odor source) vs unprotected control: FIG. 5A; for probe time (time on the human odor source) vs unprotected control: FIG. 5B; for number of probe attempts at the human odor source vs unprotected control: FIG. 5C. How it is done: The olfactometer procedure and materials used in this study are similar to those employed by Zappia and Roitberg (2012) Energy-state dependent responses of Anopheles gambiae (Diptera: Culicidae) to simulated bednet-protected hosts. J. Vector Ecol. 37 (1): 173-8, herein incorporated by reference in its entirety. The behavioral assay was conducted in a custom-made glass olfactometer tube (145 cm long, 17 cm diameter) (FIG. 2). A mosquito release chamber was located on one side of the tube and consisted of a small tube with a gate attached separating the mosquito from the experiment arena. A small sac (10 cm×3 cm in diameter) made of mesh (Onsight equipment insecticide free hiker's mosquito shelter) was positioned 60 cm from the end of the release chamber. The mesh sac was immersed in the treatment compound immediately before trials and allowed to dry before the trial began. The sac contained human odor in the form of a sock (Secret brand, nylon) conditioned through 30 minutes of strenuous exercise and incubated at 28° C. and 80% RH for 24 hours before use. This sock was tested to ensure it was attractive to mosquitoes at the beginning of each trial day (by placing it in a non-experimental colony cage and observing whether females in the cage would seek it out to probe at it) and replaced every 5 days. A breathing tube was also attached to the human odor/chemical complex that allowed a one-way flow of exhaled carbon dioxide into the arena through the sock to make the human odor more attractive to A. gambiae. Carbon dioxide was exhaled into this tube once every 15 seconds during trials. An odor-producing sugar source was located 73 cm from the human odor/chemical complex. This consisted of a cotton ball impregnated with approximately 5 g of honey (Kidd Bros, Alfalfa Clover). The ball was suspended on a metal stage from the top of the olfactometer tube. This gave the mosquito an alternative during trials from seeking the human odor source. At the opposite end of the tube from the release gate was an air source pumping a one-way source of carbon-filtered air into the olfactometer arena flowing from the sugar source to the human odor to the release gate at a rate of 0.025 L/s. The olfactometer was rinsed daily with acetone and water to minimize residual odors. A 2×5 factorial design was used with solvent type and chemical as factors. The solvent types tested were a 1:1 and 1:5 ratio of isopropyl alcohol to water. Two different solvent types were assessed to determine the lowest ratio of alcohol to water that would be effective, since a lower concentration of alcohol is both more cost effective and practical in the field. […] In addition, we tested DEET™ as a positive control compound. Two concentrations of DEET™ and 3c{3,6} (0.1% and 1%) and a control were assessed for each solvent consisting of the solvent without the active ingredient (0% concentration). Female A. gambiae (4-7 days old, not previously blood-fed, and without a visibly swollen abdomen, wing size 2.93 mm-3.49 mm) were starved for 24 hours before assays. All assays were run under dim red light (1.79 μmol photons/(s×m^2)) in the colony chamber 1-5 hours after darkness since this is the period in which blood-seeking behaviour in females is highest. Mosquitoes were allowed to acclimate in the release chamber for 3 minutes before trials began. After 3 minutes, the release gate was opened. […] When the mosquito entered the arena, timing began. During trials, the olfactometer design was such that the mosquito encountered the human odor/chemical first, followed by the sugar odor source. The experiment arena consisted of the area in the olfactometer that was placed in front of the plant odor source, relative to the release point of the mosquito. Trials ended when the mosquito landed anywhere in the arena and rested for 5 minutes or flew to the plant sugar source. […]

The test system of experiment [3] is olfactory receptor neurons on the maxillary palps of A. gambiae. The following applies: cited from earlier work.
The test system of the next experiment is Aedes aegypti. The following applies: cited from earlier work.
For experiment [4], the system named is neurons in the sacculus on the antenna that express an ionotropic receptor (IR40a). The following applies: cited from earlier work.
The next experiment relates to Culex quinquefasciatus. The following applies: cited from earlier work.

“Also recorded” adds a separate entry of the source.

Consider `C=CCOc1ccc(OCCC)cc1` [3c{3,6}, 1-allyloxy-4-propoxybenzene], for which the “depolarization response of compound by itself” value in the experiment with Anopheles gambiae [1] (100 μg dose, FIG. 6) is listed as “one of the largest depolarization responses by itself”. Further, in the experiment with Anopheles gambiae [1] (FIG. 4, difference not significant (P>0.05)), the “air-corrected antennal depolarization, chemical alone (without the human odor)” value is “larger air-corrected antennal depolarization than the other compounds tested”. The “EAG activity: response to repellent/human odor source combination compared to DEET reference peak” value with Anopheles gambiae [1] (human scent with 1 μg, 10 μg, 100 μg chemical (pooled), FIG. 3) was “largest activity of all the compounds tested”. For the same compound, in the experiment with Anopheles gambiae [2], the “repelling efficacy, DEET vs 3c{3,6}” value is listed as “a 0.1% solution of DEET™ was more effective”; the “total experiment time (time in the proximity of the human odor source) vs unprotected control” value was “spent less time in the proximity of the human odor source”; the “probe time (time on the human odor source) vs unprotected control” value is given as “spent less time on the human odor source”; the “number of probe attempts at the human odor source vs unprotected control” value was “attempted to probe less”. The “behavioural response compared with DEET” value in the experiment on Anopheles gambiae [2] (1% solution) was “comparable response in mosquitoes to a 1% solution of DEET™”. In addition, in the experiment on Anopheles gambiae [2] (in vivo), the “repellent efficacy against A. gambiae (overall conclusion)” value is on record as “effective repellent for A. gambiae; also recorded: effective repellent against A. gambiae”.
For `CCN(CC)C(=O)c1cccc(C)c1` [DEET™, N—N-diethyl-meta-toluamide], the “inhibition of olfactory receptor neurons (decreased response to 1-octen-3-ol)” value in experiment [3] is “inhibits olfactory receptor neurons on the maxillary palps of A. gambiae”. The “enhancement or inhibition of antennal responses to human scent” value in the experiment on Anopheles gambiae [1] (compound + human scent) was “did not affect the responses to the human scent”. The “antennal (olfactory) response to compound by itself” value in the experiment with Anopheles gambiae [1] (compound alone, EAG) is “responded; also recorded: elicited olfactory responses by itself”. Also, in the experiment with Aedes aegypti, the “direct detection of DEET” value is recorded as “detect DEET™ directly” and the “inhibition of neuron response to 1-octen-3-ol” value is “this inhibition was not detected”. In addition, the “stimulation of IR40a-expressing sacculus neurons” value in experiment [4] is “stimulate neurons in the sacculus on the antenna of Drosophila melanogaster”. Further, in the experiment with Culex quinquefasciatus, the “direct detection of DEET” value is on record as “detect DEET™ directly” and the “inhibition of neuron response to 1-octen-3-ol” value is given as “this inhibition was not detected”. Also, in the experiment on Anopheles gambiae [2], the “repelling efficacy, DEET vs 3c{3,6}” value is on record as “more effective at repelling A. gambiae individuals than a 0.1% solution of 3c{3,6}”; the “total experiment time (time in the proximity of the human odor source) vs unprotected control” value was “spent less time in the proximity of the human odor source”; the “probe time (time on the human odor source) vs unprotected control” value is “spent less time on the human odor source”; the “number of probe attempts at the human odor source vs unprotected control” value is “attempted to probe less”.
